Data taken from US4902791A, “Nitrosourea derivatives, process for their preparation and medicaments containing them” (Sanofi S.A., priority 1983, dated 1990).
In brackets after ≈: the same amount, converted by molar mass.

Tests used:
[1] = MONTERO et al; cited from earlier work
L 1210 leucemia = settings: IMBACH et al; cited from earlier work
L 1210 cell = experiment: 20% cytotoxic index, trypan blue exclusion, 24 h (TEST N° 1); assay type: cell-based, mouse; settings: Mus musculus, read-out: DOSE COR[…] A 20% CYTOTOXIC INDEX; L1210 cells, 24 hours at 37° C.; read-out: DOSE CORRESPONDING TO A 20% CYTOTOXIC INDEX
Protocol: (§1) The test used is that of W. J. Durkin et al. Cancer Research 1979, 39, 402-407, modified.
(§2) All the nitrosoureas were dissolved in 70% ethanol in the proportion of 10 mg/ml.
1--Determination of the 20% cytotoxic index
100 μl of an L 1210 cell suspension (10^6 cells per ml) in R P M I 1640 culture medium supplemented with 10% of fetal calf serum and 40 μg/ml of gentamycin, containint various doses of the products to be tested (0 to 100 μg/ml) were incubated 24 hours at 37° C. At the end of this time, the cell viability is determined by the trypan blue exclusion test. The cytotoxic index is defined by the formula: [formula]
The amount of ethanol is the same in the cultures containing the products to be tested and in the control cultures (this amount has no effect either on growth nor on cell viability).
For each product the dose which gives a cytotoxic index of 20% is determined.

L 1210 cells = experiment: cytotoxic index after 1 h contact, potential "in vivo" activity (TEST N° 2); assay type: cell-based, mouse
Protocol: as §1, §2
2--Determination of the potential "in vivo" activity
L 1210 cells, under conditions similar to the preceding protocol, were contacted for 1 hour with a dose of the various products tested corresponding to a cytotoxic index equal to 20%. After this time, the cells were placed in culture medium not containing nitrosoureas and incubated at 37° C. After 48 hours, the cytotoxic index was determined.

leucemia L1210 = experiment: effective "in vivo" activity in the mouse, leucemia L1210, compound 2, i.p. days 1, 5, 9
Protocol: The experimentation which is reported below used the compound 2 prepared according to the above example 6 (Ref. IC 81 1183).
The mice (female, average weight 20 g) used were F1 /DBA2 /C57 /B1 (Animal selection and breeding center of the Laboratories of the CNRS, Orleans, La Source).
The mice distributed in cages by drawing lots were inoculated on day "0" with 10^5 leucemia L1210 cells.
The animals were treated with the compound IC 81 1183 intraperitoneally on days 1, 5 and 9.
The suspensions were prepared just before the injection: product 2+neutralized and sterilized olive oil.
The mortality of the animals was observed regularly, the relative increase in the survival (T/C×100) was calculated from the average survival of the treated animals (T) and that of the control animals (C).

leucemia L 1210 IGR = experiment: "in vivo" activity on leucemia L1210 IGR, 20 mg/kg i.p. days 1, 5, 9; design: species or system mouse
Protocol: Female DBA2 mice were used, about 8 weeks old and weighing about 20 g from the IFFA-CREDO center (les Oncins, 69210 Arbresles)
At day "0", each mouse received intraperitoneally an inoculum of […] in a volume of 0.2 ml.
After tumoral graft, the mice were distributed at random into 21 cages of 5 animals, themselves then distributed, by drawing lots, into 6 experimental series. Within these 6 experimental series, there were constituted a control series of 6 cages and 5 experimental series of 3 cages each, and of which the mice were intended to be treated by the compounds of the invention.
(§3) The protocol was identical for the 3 tumors and the 5 compounds of the invention to be tested.
(§4) As regards the experimental series to be treated, each mouse received, at days 1, 5 and 9, intraperitoneally, a dose of 20 mg/kg of the compound to be tested, in the volume of 0.2 ml of neutralized and sterilized olive oil.
(§5) As regards the control series, each mouse received, intraperitoneally, 0.2 ml of neutralized and sterilized olive oil.
(§6) The results are expressed by the relative increase in survival (T/C×100) calculated from the average survival of the treated animals (T) and that of the control animals (C)
(§7) The mice surviving more than 60 days were considered as cured.
(§8) The figures between parentheses indicate the percentage of cured mice.

Tumor LEWIS 3LL = experiment: "in vivo" activity on Lewis tumor, 20 mg/kg i.p. days 1, 5, 9; design: species or system mouse
Protocol: Procedure was under the conditions which have just been described previously with regard to melanoma B16, by injecting the tumor cells, in the proportion of 2×10^6 per mouse, in the volume of 0.2 ml.
as §3, §4, §5, §6, §7, §8

melanoma B16 = experiment: "in vivo" activity on melanoma B16, 20 mg/kg i.p. days 1, 5, 9; design: species or system mouse
Protocol: Female C57 B 1/6 mice were used, about 8 weeks old and weighing about 20 g, from the IFFA-CREDO center.
At day "0", each mouse received intraperitoneally an inoculum of 2×10^6 tumor cells in a volume of 0.5 ml.
After tumoral graft, distribution at random was carried out as indicated above, to obtain a control series of 8 cages and 5 experimental series of 4 cages each, and of which the mice were intended to be treated by the compounds of the invention.
as §3, §4, §5, §6, §7, §8

L 1210 USA Tumor = experiment: "in vivo" activity on L1210 U.S.A. tumor, 5 mg/kg i.p. days 1, 5, 9; design: species or system mouse
Protocol: The tumor L1210 U.S.A. is more resistant than tumor L1210 IGR.
(§9) The experiments were identical to those described in preceding paragraph 4 but lower doses were used.
There were inoculated into the mice, 10^5 tumor cells of L1210 U.S.A. intraperitoneally in a volume of 0.2 ml.
At days 1, 5 and 9, the compounds of the invention under test were injected intraperitoneally, at a lower dose than that used in the experiment described at 4, that is to say in the proportion of 5 mg/kg.

L 1210 IGR TUMOR = experiment: "in vivo" activity on L1210 IGR tumor, 5 mg/kg i.p. days 1, 5, 9; design: species or system mouse
Protocol: as §9
The same protocol was carried out with the tumor L1210 IGR, by inoculating 10^5 tumor cells of L1210 IGR intraperitoneally in the volume of 0.2 ml then, at days 1, 5 and 9, there were injected intraperitoneally 5 mg/kg of each of the compounds to be tested.

[2] = compared with literature curves

O=NN(CCCl)C(=O)N[C@@H]1O[C@H](CO)[C@@H](O)[C@H](O)[C@H]1O [1-[3-(2-chloro-ethyl) 3-nitroso-ureido]-1-beta-D-glucopyranose]
toxicity on the bone marrow [1]: lower toxicity on the bone marrow

CC(=O)OC[C@H]1O[C@@H](NC(=O)N(CCCl)N=O)[C@H](OC(C)=O)[C@@H](OC(C)=O)[C@@H]1OC(C)=O [2,3,4,6-tetra-O-acetyl 1-[3-(2-chlor-ethyl)nitroso-3-ureido]-1-desoxy-beta-D-glucopyranose]
toxicity on the bone marrow [1]: lower toxicity on the bone marrow

CC(=O)OC[C@H]1OC(OC(C)=O)[C@H](NC(=O)N(CCCl)N=O)[C@@H](OC(C)=O)[C@@H]1OC(C)=O (some centres unmarked) [GCNU, 3-(2-chloro-1-ethyl-2'-desoxy-glucopyranosyl-14,3',4",6'-tetracetate)nitrosourea]
oncostatic action on L 1210 leucemia (L 1210 leucemia): oncostatic action

CO[C@@H]1C[C@@H](NC(=O)N(CCCl)N=O)[C@H](O)[C@@H](C)O1 [IC 1183, Methyl 3-[3-(2-chloroethyl) 3-nitrosoureido] 2,3,6-tridesoxy α-D-arabinohexopyranoside]
IC20 (L 1210 cell): 50 µg/mL (≈ 169 µM) | CYTOTOXIC INDEX (L 1210 cells; 1 hour contact at dose giving 20% index, read after 48 hours): 77% | POTENTIAL "IN VIVO" ACTION (L 1210 cells; active if cytotoxic index ≥40%): + (if the cytotoxic index was equal to or greater than 40%, the product concerned would be active "in vivo" in the mouse) | T/C (×100) (leucemia L1210; 1.25 mg/kg i.p. days 1, 5, 9): 118 | T/C (×100) (leucemia L1210; 2.50 mg/kg i.p. days 1, 5, 9): 158 | T/C (×100) (leucemia L1210; 5 mg/kg i.p. days 1, 5, 9): 170 | T/C (×100) (leucemia L1210; 10 mg/kg i.p. days 1, 5, 9): 220 | T/C (×100) (leucemia L1210; 20 mg/kg i.p. days 1, 5, 9): 00 (T/C=00: for definition: more than 50% of the treated animals were finally cured) | T/C (×100) (leucemia L1210; 40 mg/kg i.p. days 1, 5, 9): 00 (T/C=00: for definition: more than 50% of the treated animals were finally cured) | T/C (×100) (leucemia L1210; 50 mg/kg i.p. days 1, 5, 9): 100 | T/C above 40 mg/kg (leucemia L1210; after 40 mg/kg, rise in toxicity): sudden drop of the T/C | curve of efficiency vs CCNU and Me CCNU (leucemia L1210; [2]): very distinctly higher than those obtained by CCNU and Me CCNU | curve of efficiency vs RFCNU and RPCNU (leucemia L1210; [2]): as good as that obtained with RFCNU and RPCNU | animals cured finally (leucemia L1210; doses of 20 and 40 mg/kg): all the animals at doses of 20 and 40 mg/kg were cured finally | Toxicity (leucemia L1210; ≥60 mg/kg i.p. days 1, 5, 9): Toxicity | relative increase in survival (T/C×100) (leucemia L 1210 IGR): .infin. (The sign 00 indicates that 50% at least of the mice were cured) | percentage of cured mice (leucemia L 1210 IGR; surviving more than 60 days): 100% | relative increase in survival (T/C×100) (Tumor LEWIS 3LL): .infin. (The sign 00 indicates that 50% at least of the mice were cured) | percentage of cured mice (Tumor LEWIS 3LL; surviving more than 60 days): 75% | relative increase in survival (T/C×100) (melanoma B16): 234 | percentage of cured mice (melanoma B16; surviving more than 60 days): 5% | Average survival ±2 σm (L 1210 USA Tumor): 13,5 ± 0,91 | Median survival (L 1210 USA Tumor): 14,0 | T/C × 100 (average survival) (L 1210 USA Tumor): 157 | T/C × 100 (median survival) (L 1210 USA Tumor): 161 | Average survival ±2 σm (L 1210 IGR TUMOR): 18,7 ± 1,30 | Median survival (L 1210 IGR TUMOR): 19 | T/C × 100 (average survival) (L 1210 IGR TUMOR): 207 | T/C × 100 (median survival) (L 1210 IGR TUMOR): 210

CC1(C)O[C@@H]2[C@@H](COC(=O)c3ccc([N+](=O)[O-])cc3)OC(NC(=O)N(CCCl)N=O)[C@@H]2O1 (some centres unmarked) [RFCNU, 1-(2-chloro-ethyl)3-(ribofuranosyl-2',3'-isopropylidene-5-paranitro benzoate)-nitrosourea]
oncostatic action on L 1210 leucemia (L 1210 leucemia): oncostatic action

CC(=O)O[C@@H]1[C@H](OC(C)=O)COC(NC(=O)N(CCCl)N=O)[C@@H]1OC(C)=O (some centres unmarked) [RPCNU, 1-(2-chloro-ethyl) 3-(ribopyranosyl-2',3',4'-triacetate)-nitrosourea]
oncostatic action on L 1210 leucemia (L 1210 leucemia): oncostatic action

CC(=O)O[C@H]1[C@H](OC(C)=O)COC(NC(=O)N(CCCl)N=O)[C@@H]1OC(C)=O (some centres unmarked) [XPCNU, 1-(2-chloro-ethyl) 3-(xylopyranosyl 2',3',4'-triacetate)-nitrosourea]
oncostatic action on L 1210 leucemia (L 1210 leucemia): oncostatic action
